Results from US20020198219A1, “2-pyridinamine compositions and related methods” (priority 2000, published 2002).
Like-named read-outs stand apart in the source and are kept apart here.

Key:
[1] = tested on: differentiated P19 neurons; test: Differentiated P19 excitotoxicity assay (glutamate/glycine-induced death, Alamar Blue); format: cell-based, murine; conditions: for IC50: read-out: IC50 for Neuroprotection [lower-upper 95% C.I.]; for Emax: read-out: Maximal Efficacy for Neuroprotection
Description: Alamar Blue fluorescence, an indicator of cell viability, was used to determine cell viability after an NMDA-induced cytotoxic insult. […] However, since raw fluorescence counts vary from experiment to experiment, FIGS. 2A, 2B, and 2C are expressed as a percent of control.
(§1) Glutamate toxicity dose response in the presence of a constant 1 mM glycine concentration was measured in the differentiated P19 neurons. The curve generated through the data points is the average of 6 separate dose response curves. Data points are represented as the percent of control cells ±standard error. % control=(([Glutamate]exp−[Glutamate]max)/(Controlvehicle−[Glutamate]max))×100.
Data points are the average ±standard error of three separate experiments.
These cells were used to measure the effects of various known kinase inhibitors (Compound Identification (ID) column in Table I) upon cytotoxicity-induced by NMDA. First, P19 cells were differentiated as described in Example 2. Then cells were exposed to 3 mM of glutamate in the presence of 1 mM glycine.
Cell viability was determined. Compounds that prevented excitotoxicity were determined by measuring the percentage of viable cells compared to differentiated P19 cells that were not presented with a toxic insult (Table I).
Cell viability was measured using two methods. The first method was a confocal, single-cell fluorescence imaging-based method using the live cell dye carboxy-fluorescein diacetate (CFDA). CFDA labels the cell bodies and processes of living cells. […] CFDA fluorescence was measured using a modified Attofluor Imager device (Atto Instruments, Rockville Pike, Md.). Cells were labeled with 1 uM CFDA for 15 min in media, then placed onto the stage of the Attofluor microscope. The dye was excited by light from a mercury lamp source passed through a 488 nm bandpass filter of 10 nm band width, passed through a CARV real-time confocal spinning disk module (Atto Instruments, Rockville, Md.), and then passed through a 40× oil immersion objective (Zeiss Fluar, NA=1.3). Emitted light was transmitted through a 495 nm dichroic mirror, collected to an Attofluor intensified CCD camera, and images were visualized using Attofluor RatioVision software (Atto Instruments, Rockville, Md.).
The second method for measuring cell viability was a plate reader method. Cells plated into black 96 well plates (Packard viewplates) are loaded with 5% Alamar Blue dye (Biosource International). Alamar Blue is a dye that takes advantage of mitochondrial reductases to convert non-fluorescent resazurin to fluorescent resorufin (excitation 535 nm, emission 580 nm). Baseline fluorescence counts were read at room temperature in a Wallac plate reader immediately after addition of Alamar blue. Fluorescence counts of cell viability were taken the same way after 1 hour incubation at 37° C. Fluorescence was expressed as a percent of control, untreated cells after subtraction of background fluorescence. Live/dead cells were confirmed visually with a light microscope. […]

CAMKII = conditions: from the literature; read-out: Potency, CAMKII; cited from earlier work
EGF-R = EGF-R (Homo sapiens, UniProt P00533); test: biochemical
Description: (§2) Assay conditions varied slightly for each protein kinase, for example, insulin receptor kinase requires 10 mM MnCl2 for activity and calmodulin-dependent protein kinase requires calmodulin and 10 mM CaCl2. Reaction mix was dispensed into the wells of a streptavidin-coated Flashplate and 1 μl drug stock in 100% DMSO was added to a 100 μL reaction volume resulting in a final concentration of 1% DMSO in the reaction. Enzyme was diluted in 50 mM Tris-HCl pH=8.0, 0.1% BSA and added to each well. The reaction was incubated for one hour at 30° C. in the presence of compound. After one hour the reaction mix was aspirated from the plate and the plate was washed with PBS containing 100 mM EDTA. The plate was read on a scintillation counter to determine ^33P-γ-ATP incorporated into the immobilized peptide. Test compounds were assayed in duplicate at 8 concentrations ranging from 100 μM to 10 μM in one order of magnitude steps. A maximum and minimum signal for the assay was determined on each plate. The IC50 was calculated from the dose response curve of the percent inhibition of the maximum signal in the assay according to the formula [max signal−background/test compound signal−background×(100)]=% inhibition by graphing the percent inhibition against the log concentration of test compound. Known inhibitor compounds appropriate for the kinase being assayed were also included on each plate. […]

PK A = biological target: T1, PK A (Bos taurus, UniProt P00517); test: Kinase assay (33P Flashplate), Protein Kinase A; format: biochemical, bovine
T1 construct: Protein Kinase A is the catalytic subunit of cAMP-dependent protein kinase-A purified from bovine heart; from tissue; host or cells: bovine heart
Description: as §2

Casein Kinase 1 = biological target: T2, Casein Kinase 1 (Rattus norvegicus, UniProt Q06486); test: Kinase assay (33P Flashplate), Casein Kinase 1; format: biochemical; conditions: mean of at least two curves
T2 construct: a truncation at amino acid 318 of the C-terminal portion of the rat CK1 delta isoform; host or cells: E. coli
T2 sequence (Q06486 1-317): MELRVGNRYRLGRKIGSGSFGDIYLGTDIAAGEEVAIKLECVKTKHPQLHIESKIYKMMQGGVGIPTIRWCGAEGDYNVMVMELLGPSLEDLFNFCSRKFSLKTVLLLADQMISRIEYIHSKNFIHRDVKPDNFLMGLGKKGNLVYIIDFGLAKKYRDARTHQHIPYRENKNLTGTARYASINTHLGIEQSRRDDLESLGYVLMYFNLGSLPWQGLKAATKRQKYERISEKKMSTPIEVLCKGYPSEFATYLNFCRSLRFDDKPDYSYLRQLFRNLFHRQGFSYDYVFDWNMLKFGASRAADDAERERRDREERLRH
Description: (§3) The general procedure used to assay for kinase activity was as follows: a kinase reaction mix was prepared in 50 mM Tris-HCl pH=8, 10 mM MgCl2, 0.1 mM Na3VO4, 1 mM DTT, 10 μM ATP, 0.25-1 μM biotinylated peptide substrate, 0.2-0.8 [Curies per well ^33P-γ-ATP [2000-3000 Ci/mmol]. Assay conditions varied slightly for each protein kinase, for example, insulin receptor kinase requires 10 mM MnCl2 for activity and calmodulin-dependent protein kinase requires calmodulin and 10 mM CaCl2. Reaction mix was dispensed into the wells of a streptavidin-coated Flashplate and 1 μl drug stock in 100% DMSO was added to a 100 μL reaction volume resulting in a final concentration of 1% DMSO in the reaction. Enzyme was diluted in 50 mM Tris-HCl pH=8.0, 0.1% BSA and added to each well. […] Test compounds were assayed in duplicate at 8 concentrations ranging from 100 μM to 10 μM in one order of magnitude steps. […] The IC50 was calculated from the dose response curve of the percent inhibition of the maximum signal in the assay according to the formula [max signal−background/test compound signal−background×(100)]=% inhibition by graphing the percent inhibition against the log concentration of test compound.
(§4) Casein Kinase 1 is a truncation at amino acid 318 of the C-terminal portion of the rat CK1 delta isoform produced in E. coli.

Calmodulin Kinase = biological target: T3, Calmodulin Kinase (Rattus norvegicus, UniProt P11275); test: Kinase assay (33P Flashplate), Calmodulin Kinase; format: biochemical; conditions: mean of at least two curves
T3 construct: host or cells: insect cells
Description: as §3, §4

Casein Kinase 2 = biological target: T4, Casein Kinase 2 (Homo sapiens, UniProt P68400); test: Kinase assay (33P Flashplate), Casein Kinase 2; format: biochemical; conditions: mean of at least two curves
T4 construct: host or cells: E. coli
Description: as §3, §4

CDK1 = biological target: T5, CDK1 (Homo sapiens, UniProt P06493); test: Kinase assay (33P Flashplate), CDK1; format: biochemical; conditions: mean of at least two curves
T5 construct: host or cells: insect cells
Description: as §3, §4

P19 neurons [2] = tested on: P19 neurons
Description: as §1

PKC-γ = biological target: T6, PKC-γ (Homo sapiens, UniProt P05129); test: Kinase assay (33P Flashplate), PKC-γ; format: biochemical; conditions: mean of at least two curves
T6 construct: host or cells: insect cells
Description: as §3, §4

p60^c-src = p60^c-src (Homo sapiens, UniProt P12931); conditions: from the literature; read-out: Potency, p60^c-src; cited from earlier work
PKA = PKA (Homo sapiens, UniProt P17612); conditions: from the literature; read-out: Potency, PKA; cited from earlier work
PKG = biological target: T7, PKG (Homo sapiens, UniProt Q13976); conditions: from the literature; read-out: Potency, PKG; cited from earlier work
T7 sequence (Q13976 1-671): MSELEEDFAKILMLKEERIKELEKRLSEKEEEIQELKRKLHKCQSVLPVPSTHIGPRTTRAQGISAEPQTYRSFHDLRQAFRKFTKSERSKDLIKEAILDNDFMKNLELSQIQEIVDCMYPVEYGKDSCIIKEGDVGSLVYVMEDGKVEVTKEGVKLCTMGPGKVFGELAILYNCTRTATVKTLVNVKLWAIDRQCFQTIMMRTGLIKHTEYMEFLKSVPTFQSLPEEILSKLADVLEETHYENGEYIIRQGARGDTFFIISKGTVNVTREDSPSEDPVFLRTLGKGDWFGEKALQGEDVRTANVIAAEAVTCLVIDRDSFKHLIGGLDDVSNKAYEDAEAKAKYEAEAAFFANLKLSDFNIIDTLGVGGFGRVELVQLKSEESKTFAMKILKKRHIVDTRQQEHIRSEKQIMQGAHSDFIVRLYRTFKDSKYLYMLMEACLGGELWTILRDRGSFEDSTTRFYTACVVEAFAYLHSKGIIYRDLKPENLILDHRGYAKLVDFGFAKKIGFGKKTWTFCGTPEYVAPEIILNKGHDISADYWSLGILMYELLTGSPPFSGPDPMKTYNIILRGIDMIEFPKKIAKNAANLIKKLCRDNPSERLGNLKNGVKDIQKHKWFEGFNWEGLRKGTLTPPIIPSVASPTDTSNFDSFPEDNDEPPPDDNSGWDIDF

PKC = conditions: from the literature; read-out: Potency, PKC; cited from earlier work
Insulin Receptor Kinase = biological target: T8, Insulin Receptor Kinase (Homo sapiens, UniProt P06213); test: Kinase assay (33P Flashplate), Insulin Receptor Kinase; format: biochemical; conditions: mean of at least two curves
T8 construct: Insulin Receptor Kinase consists of residues 941-1313 of the cytoplasmic domain of the beta-subunit of the human insulin receptor
Description: as §3, §4

EGF receptor = EGF receptor (Homo sapiens, UniProt P00533); conditions: from the literature; read-out: Potency, EGF receptor; cited from earlier work
NMDA receptor [3] = conditions: P19 membranes; concentration-dependent
Description: MK-801 inhibition of [^3H]-MK-801 binding was assayed in P19 membranes. MK-801 concentrations are expressed as 10^−x Molar. Data points represent the mean ±standard error from eight experiments. % control=((CPM−CPMbottom)/(CPMtop−CPMbottom))×100.
Data points represent the mean ±standard error from eight experiments.

NMDA receptor [4] = conditions: 3 mM glutamate, 1 mM glycine; MK-801 100 μM, U0126 10 μM
Description: Cells were loaded with 5 μM Fura-2-AM (Molecular Probes) for 1 hr at 37° C. They were washed once with Hank's balanced salt solution (HBSS, Gibco BRL), and assayed in HBSS buffer. Cells were placed onto the stage of a modified ATTOFLUOR™ Imager (Atto Instruments, Rockville Pike, Md.). High speed, dual excitation of fura-2 was carried out using a RATIOARC™ High-Speed Excitor (Atto Instruments). Mercury lamp light was passed through 334 nm or 380 nm bandpass filters (10 nm band width), and then passed through a 20× objective (Zeiss, Plan-Apochromat, NA=0.75) at a rate of 2.5 Hz. Emitted light was transmitted through a 400 nm dichroic mirror, and collected to an ATTOFLUORT intensified CCD camera. Ratio-images were acquired, and the average intensity of the images when excited at 334 nm and 380 nm was analyzed using ATTOFLUOR RATIOVISION™ software (Atto Instruments, Rockville, Md.).
MK-801 was administered 24 hours prior to assay. Traces are the average ±standard error from three separate experiments for each condition. […] MK-801 inhibition of [^3H]-MK-801 binding was assayed in P19 membranes. MK-801 concentrations are expressed as 10^−x Molar. Data points represent the mean ±standard error from eight experiments. % control=((CPM−CPMbottom)/(CPMtop−CPMbottom))×100.
Traces are the average ±standard error from four separate experiments for each condition.

P19 neurons [5] = test: A23187-induced toxicity in P19 neurons (Alamar blue); format: cell-based, murine; conditions: Mus musculus, Neuron, 24 h
Description: Cells were then assayed for Alamar blue fluorescence. […] Data points are represented as percent of control cells ±standard error.

[6] = 3 mM glutamate + 1 mM glycine, mean of three separate curves
[7] = Mus musculus, Neuron, 3 mM glutamate + 1 mM glycine, mean of three separate curves
[8] = Mus musculus, Neuron, 3 mM glutamate + 1 mM glycine

T3 sequence (P11275 1-325): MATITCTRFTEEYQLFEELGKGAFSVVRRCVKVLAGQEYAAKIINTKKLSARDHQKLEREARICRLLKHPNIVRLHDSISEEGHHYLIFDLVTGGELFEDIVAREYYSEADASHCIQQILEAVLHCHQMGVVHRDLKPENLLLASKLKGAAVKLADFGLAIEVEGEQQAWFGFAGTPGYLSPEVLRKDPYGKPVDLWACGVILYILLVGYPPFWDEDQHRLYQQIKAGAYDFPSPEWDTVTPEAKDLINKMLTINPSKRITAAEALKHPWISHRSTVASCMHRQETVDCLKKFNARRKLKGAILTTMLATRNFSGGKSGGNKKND
T5 sequence (P06493 whole entry): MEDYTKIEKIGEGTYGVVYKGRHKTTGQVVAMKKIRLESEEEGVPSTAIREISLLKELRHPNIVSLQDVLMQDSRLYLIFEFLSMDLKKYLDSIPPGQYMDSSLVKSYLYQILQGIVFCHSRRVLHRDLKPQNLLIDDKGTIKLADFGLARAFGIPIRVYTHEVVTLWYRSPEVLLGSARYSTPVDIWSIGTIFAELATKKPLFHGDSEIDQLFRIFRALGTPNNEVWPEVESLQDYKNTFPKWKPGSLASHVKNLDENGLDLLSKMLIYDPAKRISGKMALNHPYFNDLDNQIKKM
T5 sequence (P14635 whole entry partner): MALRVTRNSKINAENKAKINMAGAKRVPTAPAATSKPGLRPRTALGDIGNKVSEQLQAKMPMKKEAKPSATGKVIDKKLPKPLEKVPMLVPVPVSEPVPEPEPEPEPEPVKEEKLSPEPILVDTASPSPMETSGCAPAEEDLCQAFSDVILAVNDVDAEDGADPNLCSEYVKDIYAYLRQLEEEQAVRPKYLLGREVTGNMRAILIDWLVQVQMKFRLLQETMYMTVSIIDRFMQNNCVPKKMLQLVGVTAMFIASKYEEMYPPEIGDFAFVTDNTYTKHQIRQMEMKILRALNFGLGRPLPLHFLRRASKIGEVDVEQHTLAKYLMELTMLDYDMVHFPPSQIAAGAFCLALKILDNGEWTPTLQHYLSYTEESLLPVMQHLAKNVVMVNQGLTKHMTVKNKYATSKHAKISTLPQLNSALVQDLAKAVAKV
T4 sequence (P68400 whole entry): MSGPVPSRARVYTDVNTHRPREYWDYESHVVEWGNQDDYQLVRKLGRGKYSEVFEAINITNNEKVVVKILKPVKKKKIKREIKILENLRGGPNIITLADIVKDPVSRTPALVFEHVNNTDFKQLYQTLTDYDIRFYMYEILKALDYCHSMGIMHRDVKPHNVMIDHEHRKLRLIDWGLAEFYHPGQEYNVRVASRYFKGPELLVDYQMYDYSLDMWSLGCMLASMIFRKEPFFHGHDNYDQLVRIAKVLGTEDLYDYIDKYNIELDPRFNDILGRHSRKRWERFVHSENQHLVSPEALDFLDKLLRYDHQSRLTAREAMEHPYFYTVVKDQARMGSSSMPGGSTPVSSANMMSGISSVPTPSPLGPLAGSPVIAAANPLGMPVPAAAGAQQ
T4 sequence (P67870 whole entry partner): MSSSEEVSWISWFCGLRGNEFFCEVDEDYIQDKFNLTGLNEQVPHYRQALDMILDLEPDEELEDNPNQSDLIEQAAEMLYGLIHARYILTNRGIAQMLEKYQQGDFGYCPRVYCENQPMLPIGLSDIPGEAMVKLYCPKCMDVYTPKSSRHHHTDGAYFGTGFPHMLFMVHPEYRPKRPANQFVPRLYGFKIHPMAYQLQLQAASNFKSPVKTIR
T8 sequence (P06213 980-1352): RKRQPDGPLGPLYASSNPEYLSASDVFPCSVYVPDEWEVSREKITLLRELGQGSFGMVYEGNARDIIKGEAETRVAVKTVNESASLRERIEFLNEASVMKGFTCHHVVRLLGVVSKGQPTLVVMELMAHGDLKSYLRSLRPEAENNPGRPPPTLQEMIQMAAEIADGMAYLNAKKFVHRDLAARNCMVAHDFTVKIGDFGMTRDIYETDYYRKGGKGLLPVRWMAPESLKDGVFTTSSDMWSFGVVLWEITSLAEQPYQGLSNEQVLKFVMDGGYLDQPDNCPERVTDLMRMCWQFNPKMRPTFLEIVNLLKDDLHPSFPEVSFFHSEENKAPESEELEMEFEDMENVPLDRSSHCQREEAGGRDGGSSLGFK
EGF-R, sequence (P00533 25-1210): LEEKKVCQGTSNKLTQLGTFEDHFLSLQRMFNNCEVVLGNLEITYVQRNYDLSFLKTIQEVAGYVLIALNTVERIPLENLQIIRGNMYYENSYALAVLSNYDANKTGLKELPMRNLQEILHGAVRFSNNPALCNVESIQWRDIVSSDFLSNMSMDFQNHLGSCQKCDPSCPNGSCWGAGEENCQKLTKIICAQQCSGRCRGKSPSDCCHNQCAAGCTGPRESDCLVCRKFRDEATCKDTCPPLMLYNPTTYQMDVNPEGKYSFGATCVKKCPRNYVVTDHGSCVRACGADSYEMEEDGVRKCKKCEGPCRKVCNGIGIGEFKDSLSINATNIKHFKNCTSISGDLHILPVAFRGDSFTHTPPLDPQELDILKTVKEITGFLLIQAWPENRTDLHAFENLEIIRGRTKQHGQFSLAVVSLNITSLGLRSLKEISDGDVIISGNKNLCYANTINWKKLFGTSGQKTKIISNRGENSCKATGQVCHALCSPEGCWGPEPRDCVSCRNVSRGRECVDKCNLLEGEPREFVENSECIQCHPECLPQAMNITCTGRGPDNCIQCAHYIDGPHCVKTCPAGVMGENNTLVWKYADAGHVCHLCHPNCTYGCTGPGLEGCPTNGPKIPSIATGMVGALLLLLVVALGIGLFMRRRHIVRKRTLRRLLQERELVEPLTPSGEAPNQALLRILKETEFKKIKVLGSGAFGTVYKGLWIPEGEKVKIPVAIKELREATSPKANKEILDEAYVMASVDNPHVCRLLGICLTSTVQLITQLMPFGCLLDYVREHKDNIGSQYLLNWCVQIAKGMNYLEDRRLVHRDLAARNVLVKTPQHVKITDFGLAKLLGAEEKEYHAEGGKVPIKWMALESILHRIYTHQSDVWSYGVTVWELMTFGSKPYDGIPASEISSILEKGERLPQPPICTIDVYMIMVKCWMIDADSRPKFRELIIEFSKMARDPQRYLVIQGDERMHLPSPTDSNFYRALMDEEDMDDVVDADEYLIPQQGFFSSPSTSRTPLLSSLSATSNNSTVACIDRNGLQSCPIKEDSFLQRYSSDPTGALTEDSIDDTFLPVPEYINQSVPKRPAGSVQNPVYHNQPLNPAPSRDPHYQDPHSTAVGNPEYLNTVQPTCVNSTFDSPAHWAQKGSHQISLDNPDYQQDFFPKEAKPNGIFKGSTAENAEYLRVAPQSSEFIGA

For CN([C@@H](Cc1ccc(OS(=O)(=O)c2cccc3cnccc23)cc1)C(=O)N1CCN(c2ccccc2)CC1)S(=O)(=O)c1cccc2cnccc12 [KN62], the “Maximal Efficacy for Neuroprotection” value ([1]; 3 mM glutamate + 1 mM glycine) is given as <10%, the “IC50 for Neuroprotection [lower-upper 95% C.I.]” value [1, 6] is given as “Ineffective” and the Ki (CAMKII) is given as ~0.9 µM.
With N#CC(=C(/N)Sc1ccccc1N)/C(C#N)=C(/N)Sc1ccccc1N [U0126, bis[amino[(2-aminophenyl)thio]methylene] Butanedinitrile] the IC50 (EGF-R) was > 100 µM, the IC50 (PK A) was > 100 µM and the IC50 (Casein Kinase 1) was > 100 µM. For the same molecule, the IC50 (Calmodulin Kinase) was > 100 µM, the IC50 (Casein Kinase 2) was > 100 µM and the IC50 [1, 7] was 1.1 µM. The Emax [1, 8] was > 80%, the IC50 (CDK1) was > 100 µM and the “effect on basal P19 neuron viability” value (P19 neurons [2]) was “did not affect the basal viability”. For the same molecule, the IC50 (PKC-γ) was 29.5 µM.
In the case of Calphostin C, the IC50 (p60^c-src) is listed as > 50 µM, the IC50 (PKA) is listed as > 50 µM and the “Maximal Efficacy for Neuroprotection” value ([1]; 3 mM glutamate + 1 mM glycine) is listed as “˜50%”. The IC50 [1, 6] was > 1 µM, the IC50 (PKG) was > 25 µM and the IC50 (PKC) was ~0.05 µM.
For COc1cc(N)nc2[nH]c(-c3ccc(F)cc3)c(-c3ccncc3)c12 [Compound A], the IC50 (PK A; mean of at least two curves, read-out: PK A) was > 100 µM, the IC50 (Casein Kinase 1) was 0.116 µM and the IC50 (Calmodulin Kinase) was > 100 µM. For the same molecule, the IC50 (Casein Kinase 2) was > 100 µM, the IC50 [1, 7] was 9.7 µM and the Emax [1, 8] was > 80%. The IC50 (Insulin Receptor Kinase) was > 100 µM, the IC50 (CDK1) was > 100 µM and the IC50 (PKC-γ) was 8.35 µM.
For O=C(O)c1cc(N(Cc2ccccc2O)Cc2cc(O)ccc2O)ccc1O [Lavendustin A], the IC50 (p60^c-src) is listed as ~0.5 µM, the IC50 (EGF receptor) is listed as ~0.011 µM and the “Maximal Efficacy for Neuroprotection” value ([1]; 3 mM glutamate + 1 mM glycine) is listed as <25%. For the same molecule, the IC50 [1, 6] was > 10 µM.
With C[C@]12N[C@H](Cc3ccccc31)c1ccccc12 [MK-801] the “inhibition of [3H]-MK-801 binding” value (NMDA receptor [3]) was 100%, the “Maximal protection against glutamate toxicity” value ([1]; 3 mM glutamate and 1 mM glycine-induced P19 neuron death) was “close to control levels” and the “effect on glutamate/glycine-induced intracellular calcium response” value (NMDA receptor [4]) was “significantly inhibited”.
Molecule CNc1ccc2oc(C[C@H]3O[C@@]4(CC[C@H]3C)O[C@H]([C@H](C)C(=O)c3ccc[nH]3)[C@H](C)C[C@H]4C)nc2c1C(=O)O [A23187] has an EC50 (P19 neurons [5]; read-out: EC50 for A23187 toxicity, 24 hours, in the absence of U0126) of 0.52 µM and an EC50 (P19 neurons [5]; read-out: EC50 for A23187 toxicity, 24 hours, in the presence of 10 μM U0126) of 0.833 µM.
